ChEMBL document CHEMBL1201862, “PubChem BioAssay data set” (2004)
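Following 48 hours of exposure in 96-well plates, responses at five concentrations were used to interpolate endpoints linearly. The concentration for 50% growth inhibition is given as GI50.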 Active and inactive are the calls of the source. Cut-off read from the data, not from the text of the source: active = GI50 up to about 1.1 µM and inactive = higher.

Assays:
Test in all cases: NCI tumour cell line growth inhibition, 48 h
CCRF-CEM = tested on: CCRF-CEM
EKVX = tested on: EKVX
HCC 2998 = tested on: HCC 2998
HCT-116 = tested on: HCT-116
Hs-578T = tested on: Hs-578T
IGROV-1 = tested on: IGROV-1
K562 = tested on: K562
KM12 = tested on: KM12
MCF7 = tested on: MCF7
MDA-MB-435 = tested on: MDA-MB-435
Malme-3M = tested on: Malme-3M
NCI-H460 = tested on: NCI-H460
OVCAR-8 = tested on: OVCAR-8
SF-295 = tested on: SF-295
SF-539 = tested on: SF-539
SK-MEL-28 = tested on: SK-MEL-28
SK-OV-3 = tested on: SK-OV-3
SW-620 = tested on: SW-620
UACC-257 = tested on: UACC-257
HOP-92 = tested on: HOP-92

With CC(=O)C(C(C)=O)=C1CCCC(O)O1 (stereo not given) the GI50 (CCRF-CEM) was 48.5 µM (inactive), the GI50 (EKVX) was > 100 µM (inactive) and the GI50 (HCC 2998) was > 100 µM (inactive). The GI50 (HCT-116) was > 100 µM (inactive), the GI50 (Hs-578T) was 47.4 µM (inactive) and the GI50 (IGROV-1) was > 100 µM (inactive). For the same compound, the GI50 (K562) was > 100 µM (inactive), the GI50 (KM12) was > 100 µM (inactive) and the GI50 (MCF7) was > 100 µM (inactive). For the same compound, the GI50 (MDA-MB-435) was > 100 µM (inactive), the GI50 (Malme-3M) was > 100 µM (inactive) and the GI50 (NCI-H460) was > 100 µM (inactive). For the same compound, the GI50 (OVCAR-8) was > 100 µM (inactive), the GI50 (SF-295) was > 100 µM (inactive) and the GI50 (SF-539) was > 100 µM (inactive). For the same compound, the GI50 (SK-MEL-28) was > 100 µM (inactive), the GI50 (SK-OV-3) was > 100 µM (inactive) and the GI50 (SW-620) was > 100 µM (inactive). The GI50 (UACC-257) was > 100 µM (inactive).
For CC(=O)Nc1ccc(NS(=O)(=O)c2ccc3nc(C)n(NS(=O)(=O)c4ccc(NC(C)=O)cc4)c(=O)c3c2)cc1, the GI50 (CCRF-CEM) was > 100 µM (inactive), the GI50 (EKVX) was > 100 µM (inactive) and the GI50 (HCC 2998) was > 100 µM (inactive). For the same compound, the GI50 (HCT-116) was > 100 µM (inactive), the GI50 (HOP-92) was > 100 µM (inactive) and the GI50 (Hs-578T) was > 100 µM (inactive). For the same compound, the GI50 (IGROV-1) was > 100 µM (inactive), the GI50 (K562) was > 100 µM (inactive) and the GI50 (KM12) was > 100 µM (inactive). For the same compound, the GI50 (MCF7) was > 100 µM (inactive), the GI50 (MDA-MB-435) was > 100 µM (inactive) and the GI50 (NCI-H460) was > 100 µM (inactive). For the same compound, the GI50 (OVCAR-8) was > 100 µM (inactive), the GI50 (SF-295) was > 100 µM (inactive) and the GI50 (SF-539) was > 100 µM (inactive). The GI50 (SK-MEL-28) was > 100 µM (inactive), the GI50 (SK-OV-3) was > 100 µM (inactive) and the GI50 (SW-620) was > 100 µM (inactive). For the same compound, the GI50 (UACC-257) was > 100 µM (inactive).
O=c1[nH]nc(-c2ccccc2)n1/N=C/c1cccs1 was tested, and the GI50 (CCRF-CEM) was 43.1 µM (inactive), the GI50 (EKVX) was 83.6 µM (inactive) and the GI50 (HCC 2998) was > 100 µM (inactive). The GI50 (HCT-116) was 36.7 µM (inactive), the GI50 (Hs-578T) was 56 µM (inactive) and the GI50 (K562) was 38.1 µM (inactive). For the same compound, the GI50 (KM12) was > 100 µM (inactive), the GI50 (MCF7) was 46.6 µM (inactive) and the GI50 (MDA-MB-435) was 28.2 µM (inactive). The GI50 (Malme-3M) was 62.5 µM (inactive), the GI50 (NCI-H460) was 36.3 µM (inactive) and the GI50 (OVCAR-8) was 37.4 µM (inactive). For the same compound, the GI50 (SF-295) was 72.3 µM (inactive), the GI50 (SF-539) was 95.5 µM (inactive) and the GI50 (SK-MEL-28) was 86.9 µM (inactive). For the same compound, the GI50 (SK-OV-3) was > 100 µM (inactive), the GI50 (SW-620) was 82 µM (inactive) and the GI50 (UACC-257) was 56.8 µM (inactive).
O=C(Cc1ccccc1)NN1C(=O)/C(=C\c2ccccc2O)S/C1=N\c1ccccc1 was tested, and the GI50 (EKVX) was > 100 µM (inactive), the GI50 (HCC 2998) was > 100 µM (inactive) and the GI50 (HCT-116) was > 100 µM (inactive). The GI50 (HOP-92) was 39.3 µM (inactive), the GI50 (Hs-578T) was > 100 µM (inactive) and the GI50 (IGROV-1) was > 100 µM (inactive). The GI50 (KM12) was > 100 µM (inactive), the GI50 (MCF7) was > 100 µM (inactive) and the GI50 (MDA-MB-435) was > 100 µM (inactive). For the same compound, the GI50 (NCI-H460) was > 100 µM (inactive), the GI50 (OVCAR-8) was > 100 µM (inactive) and the GI50 (SF-295) was > 100 µM (inactive). For the same compound, the GI50 (SF-539) was > 100 µM (inactive), the GI50 (SK-MEL-28) was > 100 µM (inactive) and the GI50 (SK-OV-3) was > 100 µM (inactive). The GI50 (SW-620) was > 100 µM (inactive) and the GI50 (UACC-257) was > 100 µM (inactive).
For CN(C)CCn1c(=O)c2ccc(NCCCN(C)CCCNc3ccc4c(=O)n(CCN(C)C)c(=O)n5c6ccccc6c(=O)c3c45)c3c(=O)c4ccccc4n(c1=O)c23, the GI50 (CCRF-CEM) was < 0.01 µM (active), the GI50 (EKVX) was 0.051 µM (active) and the GI50 (HCC 2998) was < 0.0115 µM (active). The GI50 (HCT-116) was < 0.01 µM (active), the GI50 (Hs-578T) was 0.131 µM (active) and the GI50 (IGROV-1) was < 0.01 µM (active). For the same compound, the GI50 (K562) was < 0.01 µM (active), the GI50 (KM12) was < 0.01 µM (active) and the GI50 (MCF7) was < 0.01 µM (active). For the same compound, the GI50 (MDA-MB-435) was < 0.0151 µM (active), the GI50 (Malme-3M) was 0.361 µM (active) and the GI50 (NCI-H460) was < 0.01 µM (active). The GI50 (OVCAR-8) was < 0.01 µM (active), the GI50 (SF-295) was < 0.01 µM (active) and the GI50 (SF-539) was < 0.01 µM (active). For the same compound, the GI50 (SK-MEL-28) was 0.165 µM (active), the GI50 (SK-OV-3) was 0.101 µM (active) and the GI50 (SW-620) was < 0.01 µM (active). The GI50 (UACC-257) was 0.208 µM (active).
For COc1cc(C2c3cc4c(cc3OC(Nc3ccccc3)C2C)OCO4)cc(OC)c1OC (stereo not given), the GI50 (CCRF-CEM) was 0.315 µM (active), the GI50 (EKVX) was 1.31 µM (inactive) and the GI50 (HCC 2998) was 1.08 µM (active). The GI50 (HCT-116) was 0.42 µM (active), the GI50 (Hs-578T) was 0.479 µM (active) and the GI50 (IGROV-1) was 1.41 µM (inactive). For the same compound, the GI50 (K562) was 0.282 µM (active), the GI50 (KM12) was 0.48 µM (active) and the GI50 (MCF7) was 0.536 µM (active). The GI50 (MDA-MB-435) was 0.139 µM (active), the GI50 (Malme-3M) was 0.166 µM (active) and the GI50 (NCI-H460) was 0.524 µM (active). The GI50 (OVCAR-8) was 1.44 µM (inactive), the GI50 (SF-295) was 0.333 µM (active) and the GI50 (SF-539) was 0.262 µM (active). For the same compound, the GI50 (SK-MEL-28) was 1.61 µM (inactive), the GI50 (SK-OV-3) was 1.08 µM (active) and the GI50 (SW-620) was 0.473 µM (active). The GI50 (UACC-257) was 2.82 µM (inactive).
In the case of COC1=C(OC)C(=O)C(Cc2c(-c3ccccc3)nc3sc(Cl)cn23)=C(C)C1=O, the GI50 (CCRF-CEM) is reported as 13.7 µM (inactive), the GI50 (EKVX) is reported as 20.7 µM (inactive) and the GI50 (HCC 2998) is reported as 24.4 µM (inactive). For the same compound, the GI50 (HCT-116) was 16.4 µM (inactive), the GI50 (Hs-578T) was 18.1 µM (inactive) and the GI50 (IGROV-1) was 14.9 µM (inactive). For the same compound, the GI50 (K562) was 23.9 µM (inactive), the GI50 (KM12) was 17 µM (inactive) and the GI50 (MCF7) was 20.3 µM (inactive). For the same compound, the GI50 (MDA-MB-435) was 16.5 µM (inactive), the GI50 (Malme-3M) was 16.5 µM (inactive) and the GI50 (NCI-H460) was 16 µM (inactive). For the same compound, the GI50 (OVCAR-8) was 15.2 µM (inactive), the GI50 (SF-295) was 17 µM (inactive) and the GI50 (SF-539) was 17.1 µM (inactive). The GI50 (SK-MEL-28) was 13.8 µM (inactive), the GI50 (SK-OV-3) was 18.5 µM (inactive) and the GI50 (SW-620) was 23.3 µM (inactive). The GI50 (UACC-257) was 16 µM (inactive).
